Assay results taken from patent US20220169654A1, “New Organic Compounds” (Servier Pharmaceuticals LLC, priority 2020, published 2022).

Experiments:
HCT116 MTAP−/− = test: Inhibition of cellular proliferation, 4 days, Cell Titer Glo, HCT116 MTAP−/−; assay type: cell-based; settings: Homo sapiens, HCT-116, 96 h, IC50 bin with Max Inh., read-out: 4 Day Relative Growth Inhibition (MTAP −/−)
Description: (§1) Test compound impact on cancer cell growth was assessed by treating cancer cells with compound for 4 days and then measuring proliferation using an ATP-based cell proliferation readout (Cell Titer Glo, Promega Corporation).
(§2) In a typical assay an isogenic pair of HCT116 human colon carcinoma cell lines which vary only in MTAP deletion status (HCT116 MTAP+/+ and HCT116 MTAP−/−) were plated in 96-well dishes at appropriate cell density. Following 24 hours, cells were then treated with the candidate MAT2A inhibitor. Prior to addition to cells, the compound was first serially diluted in 100% DMSO, typically as a 3-fold serial dilution starting at 500× top dose with 10 dose points including DMSO only control. Compound was then transferred to a working stock plate in cell culture media by adding 5 μL of compound in DMSO to 495 μL of cell culture media. This working stock was then added to cells via a further 5-fold dilution, by adding 25 μL of working stock to 100 μL of cells in culture media. Following compound addition, cells were incubated at 37° C./5% CO2 for 4 days.
(§3) To measure inhibition of cellular proliferation, cells were allowed to equilibrate to room temperature for 30 minutes, and were then treated with 125 μL of Cell Titer Glo reagent. The plate was then covered with aluminum foil and shaken for 15 minutes to ensure complete mixing and full cell lysis. Luminescent signal was then measured using a plate-based luminometer Veritas version 1.9.2 using ATP standard curve to confirm assay reproducibility from run to run. This luminescence measure was converted to a proliferation index by subtracting from each data point the ATP luminescence signal measured from a bank (no cells) well and dividing by the ATP luminescence signal measured in 0.2% DMSO control well adjusted for signal in blank well. Compound activity was then represented as a percentage change in proliferation relative to a within-plate DMSO control against log 10 of compound concentration in molar (M) units.
(§4) Specific compounds disclosed herein were tested in the foregoing assay and they were determined to inhibit cellular proliferation with an IC50. See, Table 1 below.

[1] = system: SAM in HCT116 human colon carcinoma cell line with MTAP gene deleted (MTAP −/−); test: Cellular assay of target engagement (SAM), LC-MS/MS, 72 hrs; assay type: cell-based; settings: HCT-116, IC50 bin with Max Inh., read-out: Cell 72 h SAM Inhibition (MTAP −/−)
Description: Measurement of MAT2A activity in cells was made by direct quantitation of the abundance of the product of its enzymatic activity, SAM. Cancer cells were treated with candidate MAT2A inhibitors for a suitable incubation period, and the cells were then lysed using a reagent which quenched any further enzyme activity. Soluble metabolites including SAM were collected and SAM itself was directly measured from the lysate using quantitative LC-MS/MS.
A typical assay was performed using an HCT116 human colon carcinoma cell line which was genetically engineered to delete the MTAP gene (commercially available from Horizon Discovery). This cell line was utilized because it was determined that loss of the MTAP gene predicts sensitivity to MAT2A inhibitors. Cells were plated in 96-well dishes at appropriate cell density. Following 24 hours, cells were then treated with the candidate MAT2A inhibitor. Prior to addition to cells, the compound was first serially diluted in 100% DMSO, typically as a 3-fold serial dilution starting at 500× top dose with 10 dose points including DMSO only control. Compound was then transferred to a working stock plate in cell culture media by adding 5 μL of compound in DMSO to 495 μL of cell culture media. This working stock was then added to cells via a further 5-fold dilution, by adding 25 μL of working stock to 100 μL of cells in culture media. Following compound addition, cells were incubated at 37° C./5% CO2 for 72 hrs.
To quantitate SAM levels following compound treatment, cells were gently washed once in ammonium carbonate buffer (75 mM at pH 7.4), placed on dry ice, and lysed with metabolite extraction buffer (80% cold methanol and 20% water (v/v) with acetic acid at 1M final concentration with 200 ng/mL deuterated d3-SAM as internal control). Following centrifugation at 4° C. at 3,200 rpm for 30 minutes, the supernatant was collected and stored at −80° C. until analysis by Liquid Chromatography with tandem Mass Spectrometry (LC-MS/MS). LC-MS/MS analysis was performed using an API6500 Mass Spectrometer (Sciex, Framingham, Mass., USA) operating in positive ion spray mode and equipped with a Waters UPLC Acquity (Waters, Milford, Mass., USA) BEH Amide column. Multiple Reaction Monitoring data was acquired for SAM and the d3-SAM standard, using a mass transition pair at m/z 399.2→250.1 and 402.2→250.1, respectively. In a typical LC-MS/MS analysis, the initial flow rate was 0.5 ml/min of 25% mobile phase A (acetonitrile and water at 5:95 (v/v) with 1% formic acid and 10 mM ammonium acetate) and 75% mobile phase B (acetonitrile and water at 95:5 (v/v) with 1% formic acid and 10 mM ammonium acetate), 0.2-0.5 minutes with 75%-35% mobile phase B, 25%-65% mobile phase A, at 0.5 min 65% mobile phase A and 35% mobile phase B, 1.0-1.1 minutes with 35%-75% mobile phase B, 65%-25% mobile phase A, at 1.1 min 25% mobile phase A and 75% mobile phase B with a total run time of 1.5 minutes.
Specific compounds disclosed herein were tested in the foregoing assay and they were determined to inhibit SAM with an IC50. See, Table 1 below.

HCT116 MTAP+/+ = test: Inhibition of cellular proliferation, 4 days, Cell Titer Glo, HCT116 MTAP+/+; assay type: cell-based; settings: Homo sapiens, HCT-116, 96 h, IC50 bin with Max Inh., read-out: 4 Day Relative Growth Inhibition (MTAP +/+)
Description: as §1, §2, §3, §4

MAT2A homodimer = target: T1, MAT2A homodimer (Homo sapiens, UniProt P31153); test: MAT2A inhibition (biochemical, liberated phosphate, PiColorLock Gold); settings: recombinant MAT2A homodimer; IC50 bin with Max Inh.; read-out: Enzyme Inhibition Bin
T1 construct: inferred from Ni sepharose purification with imidazole elution; made in house; host or cells: Sf9 insect cells, baculovirus (Bac to Bac, pFASTBAC1)
Description: Mat2A protein was expressed by recombinant baculovirus in SF9 infected cells using the Bac to Bac system cloned into the pFASTBAC1 vector (Invitrogen, Carlsbad, Calif.). Recombinant MAT2A was isolated from the cell lysate of 150 g of infected cells using HP Ni sepharose column chromatography. Recombinant MAT2A homodimer was eluted with 250 and 500 mM imidazole, and fractions containing MAT2A were identified by sodium dodecyl sulfate polyacrylamide gel electrophoresis and pooled.
For determination of the inhibitory potency of compounds against the MAT2A homodimer, protein was diluted to 4 μg/mL in assay buffer (50 mM Tris, pH 8.0, 50 mM KCl, 15 mM MgCl2, 0.3 mM EDTA, 0.005% [w/v] bovine serum albumin [BSA]). Test compound was prepared in 100% dimethyl sulfoxide (DMSO) at 50× the desired final concentration. A 1 μL volume of compound dilution was added to 40 μL of enzyme dilution and the mixture was allowed to equilibrate for 60 minutes at 25° C. The enzymatic assay was initiated by the addition of 10 μL of substrate mix (500 μM ATP, pH 7.0, 400 μM L-methionine in 1× assay buffer), and the mixture was incubated for a further 60 minutes at 25° C. The reaction was halted and the liberated phosphate released by the enzyme in stoichiometric amounts by the production of S-adenosyl methionine (SAM) was measured using the PiColorLock Gold kit (Innova Biosciences, UK). Absolute product amounts were determined by comparison to a standard curve of potassium phosphate buffer, pH 8.0. The compounds were also tested in a secondary assay utilizing 1 μg/mL MAT2A and incubated for 5 hours at 25° C. before halting and processing as above.
Specific compounds disclosed herein were tested in the foregoing assay and they were determined to inhibit MAT2A with an IC50. See, Table 1 below.

T1 sequence (P31153 whole entry): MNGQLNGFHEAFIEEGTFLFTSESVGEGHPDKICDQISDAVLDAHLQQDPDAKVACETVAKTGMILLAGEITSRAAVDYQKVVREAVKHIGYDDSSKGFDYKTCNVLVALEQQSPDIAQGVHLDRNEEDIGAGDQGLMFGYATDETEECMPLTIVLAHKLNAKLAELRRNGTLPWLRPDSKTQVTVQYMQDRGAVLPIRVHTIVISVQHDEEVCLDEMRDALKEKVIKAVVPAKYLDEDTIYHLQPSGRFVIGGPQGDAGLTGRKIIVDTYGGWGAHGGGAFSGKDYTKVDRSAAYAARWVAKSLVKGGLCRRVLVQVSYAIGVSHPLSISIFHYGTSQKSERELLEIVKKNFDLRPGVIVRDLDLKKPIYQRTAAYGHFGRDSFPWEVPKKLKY

Compound	IC50 (HCT116 MTAP−/−)	IC50 [1]	IC50 (HCT116 MTAP+/+)	IC50 (MAT2A homodimer)
CNC(=O)c1cn(CC2CC2)c2c(-c3ccc(Cl)cc3)c(=O)n(-c3ccc4nn(C)cc4c3)nc12 [Example 171, 4-(4-chlorophenyl)-5-(cyclopropylmethyl)-N-methyl-2-(2-methyl-2H-indazol-5-yl)-3-oxo-3,5-dihydro-2H-pyrrolo[3,2-c]pyridazine-7-carboxamide]	< 100 nM	< 100 nM	< 100 nM	< 100 nM
Cn1cc2cc(-n3nc4c(CC#N)cn(CC5CC5)c4c(-c4ccc(C5CC5)nc4)c3=O)ccc2n1 [Example 259, 2-(5-(cyclopropylmethyl)-4-(6-cyclopropylpyridin-3-yl)-2-(2-methyl-2H-indazol-5-yl)-3-oxo-3,5-dihydro-2H-pyrrolo[3,2-c]pyridazin-7-yl)acetonitrile]	< 100 nM	< 100 nM	> 1000 nM	< 100 nM
Cc1cc2nn(-c3ccc4nn(C)cc4c3)c(=O)c(-c3ccc(C4CC4)nc3)c2n1CC1CC1 [Example 263, 5-(cyclopropylmethyl)-4-(6-cyclopropylpyridin-3-yl)-6-methyl-2-(2-methyl-2H-indazol-5-yl)-2,5-dihydro-3H-pyrrolo[3,2-c]pyridazin-3-one]	> 1000 nM	< 100 nM	> 1000 nM	< 1000 nM
Cn1cc2cc(-n3nc4ccn(CCC(F)(F)F)c4c(-c4ccc(OC(F)F)cc4)c3=O)ccc2n1 [Example 105, 4-(4-(difluoromethoxy)phenyl)-2-(2-methyl-2H-indazol-5-yl)-5-(3,3,3-trifluoropropyl)-2,5-dihydro-3H-pyrrolo[3,2-c]pyridazin-3-one]	< 100 nM	< 100 nM	> 1000 nM	< 100 nM
CNC(=O)c1cn(CC2CC2)c2c(-c3ccc(C4CC4)cc3)c(=O)n(-c3ccc4nn(C)cc4c3)nc12 [Example 167, 5-(cyclopropylmethyl)-4-(4-cyclopropylphenyl)-N-methyl-2-(2-methyl-2H-indazol-5-yl)-3-oxo-3,5-dihydro-2H-pyrrolo[3,2-c]pyridazine-7-carboxamide]	< 100 nM	< 100 nM	< 100 nM	< 100 nM
Cn1cc2cc(-n3nc4cnn(CC5CC5)c4c(-c4ccc(C5CC5)nc4)c3=O)ccc2n1 [Example 219, 1-(cyclopropylmethyl)-7-(6-cyclopropylpyridin-3-yl)-5-(2-methyl-2H-indazol-5-yl)-1,5-dihydro-6H-pyrazolo[4,3-c]pyridazin-6-one]	100 to 1000 nM	100 to 1000 nM	100 to 1000 nM	< 100 nM
Cn1cc2cc(-n3nc4ccn(CC5CC5)c4c(-c4ccc(CO)nc4)c3=O)ccc2n1 [Example 157, 5-(cyclopropylmethyl)-4-(6-(hydroxymethyl)pyridin-3-yl)-2-(2-methyl-2H-indazol-5-yl)-2,5-dihydro-3H-pyrrolo[3,2-c]pyridazin-3-one]	< 100 nM	< 100 nM	100 to 1000 nM	< 100 nM
CNC(=O)c1cn(CC2CC2)c2c(-c3ccc(OC)cc3)c(=O)n(-c3ccc4nn(C)cc4c3)nc12 [Example 176, 5-(cyclopropylmethyl)-4-(4-methoxyphenyl)-N-methyl-2-(2-methyl-2H-indazol-5-yl)-3-oxo-3,5-dihydro-2H-pyrrolo[3,2-c]pyridazine-7-carboxamide]	< 100 nM	< 100 nM	100 to 1000 nM	< 100 nM
Cc1ccc(-c2c(=O)n(-c3ccc4nn(C)cc4c3)nc3ncn(CC4CC4)c23)cn1 [Example 187, 5-(cyclopropylmethyl)-2-(2-methyl-2H-indazol-5-yl)-4-(6-methylpyridin-3-yl)-2,5-dihydro-3H-imidazo[4,5-c]pyridazin-3-one]	100 to 1000 nM	100 to 1000 nM	> 1000 nM	< 100 nM
